# Patent publication US20220120732A1, “TREATMENT OF DISEASES WITH MULTIMERIC PEPTIDES” (Ramot at Tel-Aviv University Ltd., priority 2019, published 2022)
# Bridges are numbered along the chain shown (N, C = ends). Roman numbers before positions name the chains, in order. Where no end group is shown, it is not given here.
# System: normal stroma cells
# Assay: Cell density, patient-derived stromal cells with autologous PBMC and C24D
# Assay type: cell-based, human
# Details: autologous PBMCs + C24D; FIGS. 5A-B
# From the text: Patient-derived tumor primary culture medium: Medium D: DMEM/F12 (1:1, v/v) supplemented with 10% FBS and 1% antibiotics/antimycotic (100×. Medium M: Medium 171 supplemented with 1% MEGS (100×), and 1% antibiotics/antimycotics. Medium DB: mixed from medium D and medium M (1:1, v/v).
# Tumor biopsies, all from different patients, were collected after obtaining the patients' consent and were transported to the laboratory. Excess adipose tissue was pared off the tumor samples, following which the samples were sliced into small fragments (approximately 1-2 mm^2) by using a scalpel. The fragments were seeded per 10 cm^2 Petri dishes in DB medium. The Petri dishes were incubated at 37° C. with 5% CO2 and monitored daily to record the time of cell appearance and the cell morphology. The medium was replaced every 3 days. Approximately two weeks after primary culture incubation, cells were trypsinized and cultured in Petri dishes according to the below protocol.
# Day 1: 4×10^5 tumor cells from the cell line or tumor and stroma cells derived from patient's biopsies were incubated in the respective growth medium in 6 well plates overnight or Petri dishes. Day 2: 3 hours prior to addition of PBMC of healthy female donors or from autologous patients, DMEM medium was changed to RPMI medium. […]
substance,measurement,value
I: CGHHLLRPRRRKRPHSIPTPILIFRSP / II: CGHHLLRPRRRKRPHSIPTPILIFRSP (disulfide I:1-II:1) [C24D],effect on normal stroma cells of the same patient,no effect
